The text below walks through data of ChEMBL document CHEMBL5241117, “Current leishmaniasis drug discovery” (RSC Med Chem, 2022).

The EC50 is the concentration giving half of the maximal effect.

Data set [1] concerns Leishmania donovani. Put plainly: Antileishmanial activity against Leishmania donovani infected in mouse model of visceral leishmaniasis assessed as reduction in parasite load. Type of data set: functional. The arrangement: scale not given: the % may be the effect or the level left.
Data set [2] concerns Leishmania donovani. The data set can be described thus: Antileishmanial activity against Leishmania donovani. Type of data set: functional, organism-based.
A short description of data set [3]: Cytotoxicity against human THP-1 cells. It counts as toxicity, cell-based.
The subject of data set [4] is Leishmania donovani. The data set can be described thus: Antileishmanial activity against Leishmania donovani infected in mouse model of visceral leishmaniasis assessed as reduction in parasite load at 25 mg/kg, po administered for 10 days. It counts as functional. The arrangement: scale not given: the % may be the effect or the level left. The note with it: time 10 day.

On to `O=C(Nc1ccc(F)c(-c2ccn3c(N4CCOCC4)cnc3n2)c1)N1CCCC1` [GSK-3494245], for which, in the data set with Leishmania donovani [1], the Activity turned out to be 95%.
With `CCCCCCCCCCCCCCCCOP(=O)([O-])OCC[N+](C)(C)C` [MILTEFOSINE], the EC50 with Leishmania donovani [2] was 0.9 µM.
In the case of `C[C@H]1CN(c2n[nH]c3nc(N[C@H]4CC[C@H](NS(=O)(=O)CCC(F)(F)F)CC4)ncc23)CCO1` [GSK-3186899], the EC50 in the data set on Leishmania donovani [2] is 1.4 µM; in data set [3] it was > 50 µM. Moreover, the Activity in the data set with Leishmania donovani [4] is recorded as 99%.
`NC[C@@H]1O[C@H](O[C@H]2[C@@H](O)[C@H](O[C@@H]3[C@@H](O)[C@H](N)C[C@H](N)[C@H]3O[C@H]3O[C@H](CO)[C@@H](O)[C@H](O)[C@H]3N)O[C@@H]2CO)[C@H](N)[C@@H](O)[C@@H]1O` [PAROMOMYCIN] came in with an EC50 in the data set with Leishmania donovani [2] of 6.6 µM.
